Laboratory results as given in patent publication US20110319411A1, “ISOINDOLINONE AND RELATED ANALOGS AS SIRTUIN MODULATORS” (Sirtis Pharmaceuticals, Inc., priority 2008, published 2011).

Target: T1, SIRT1 (Homo sapiens, UniProt Q96EB6)
T1 construct: made in house; host or cells: E. coli BL21(DE3)
T1 sequence (Q96EB6 1-747): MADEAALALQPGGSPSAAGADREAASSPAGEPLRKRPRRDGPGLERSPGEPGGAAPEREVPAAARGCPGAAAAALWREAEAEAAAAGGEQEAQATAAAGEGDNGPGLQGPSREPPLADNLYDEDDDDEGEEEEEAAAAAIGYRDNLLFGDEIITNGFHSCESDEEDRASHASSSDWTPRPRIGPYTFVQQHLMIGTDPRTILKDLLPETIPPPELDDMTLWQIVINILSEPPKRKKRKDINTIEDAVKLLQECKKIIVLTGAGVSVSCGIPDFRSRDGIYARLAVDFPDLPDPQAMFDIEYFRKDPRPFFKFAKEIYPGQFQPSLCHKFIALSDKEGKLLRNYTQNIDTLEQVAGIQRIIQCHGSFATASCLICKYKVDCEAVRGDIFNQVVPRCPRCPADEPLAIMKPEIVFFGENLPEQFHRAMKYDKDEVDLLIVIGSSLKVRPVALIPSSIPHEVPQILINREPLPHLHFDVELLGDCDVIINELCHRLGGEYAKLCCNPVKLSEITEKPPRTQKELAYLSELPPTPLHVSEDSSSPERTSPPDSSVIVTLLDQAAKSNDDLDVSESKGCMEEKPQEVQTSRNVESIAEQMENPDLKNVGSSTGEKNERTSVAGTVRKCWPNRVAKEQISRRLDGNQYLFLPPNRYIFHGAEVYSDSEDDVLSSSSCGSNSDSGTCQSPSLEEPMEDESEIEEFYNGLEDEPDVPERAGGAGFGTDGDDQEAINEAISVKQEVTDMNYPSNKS
Experiment: mass spectrometry based assay to identify modulators of SIRT1 activity
Type: biochemical
Settings: 10 nM SIRT1, 0.5 μM peptide substrate, 120 μM βNAD+, 25 minutes at 25° C.; for Emax: 25 min, read-out: % FOLD ACT. (percent maximum fold activation)
Description: A mass spectrometry based assay was used to identify modulators of SIRT1 activity. The mass spectrometry based assay utilizes a peptide having 20 amino acid residues as follows: Ac-EE-K(biotin)-GQSTSSHSK(Ac)NleSTEG-K(5TMR)-EE-NH2 (SEQ ID NO: 1) wherein K(Ac) is an acetylated lysine residue and Nle is a norleucine. The peptide is labeled with the fluorophore 5TMR (excitation 540 nm/emission 580 nm) at the C-terminus. The sequence of the peptide substrate is based on p53 with several modifications. In addition, the methionine residue naturally present in the sequence was replaced with the norleucine because the methionine may be susceptible to oxidation during synthesis and purification.
The mass spectrometry assay is conducted as follows: 0.5 μM peptide substrate and 120 μM βNAD^+ is incubated with 10 nM SIRT1 for 25 minutes at 25° C. in a reaction buffer (50 mM Tris-acetate pH 8, 137 mM NaCl, 2.7 mM KCl, 1 mM MgCl2, 5 mM DTT, 0.05% BSA). Test compounds may be added to the reaction as described above. The SirT1 gene is cloned into a T7-promoter containing vector and transformed into BL21(DE3). After the 25 minute incubation with SIRT1, 10 μL of 10% formic acid is added to stop the reaction. Reactions are sealed and frozen for later mass spec analysis. Determination of the mass of the substrate peptide allows for precise determination of the degree of acetylation (i.e. starting material) as compared to deacetylated peptide (product).
A control for inhibition of sirtuin activity is conducted by adding 1 μL of 500 mM nicotinamide as a negative control at the start of the reaction (e.g., permits determination of maximum sirtuin inhibition). A control for activation of sirtuin activity is conducted using 10 nM of sirtuin protein, with 1 μL of DMSO in place of compound, to determine the amount of deacetylation of the substrate at a given timepoint within the linear range of the assay. This timepoint is the same as that used for test compounds and, within the linear range, the endpoint represents a change in velocity.
For the above assay, SIRT1 protein was expressed and purified as follows. The SirT1 gene was cloned into a T7-promoter containing vector and transformed into BL21(DE3). The protein was expressed by induction with 1 mM IPTG as an N-terminal His-tag fusion protein at 18° C. overnight and harvested at 30,000×g. Cells were lysed with lysozyme in lysis buffer (50 mM Tris-HCl, 2 mM Tris[2-carboxyethyl]phosphine (TCEP), 10 μM ZnCl2, 200 mM NaCl) and further treated with sonication for 10 min for complete lysis. The protein was purified over a Ni-NTA column (Amersham) and fractions containing pure protein were pooled, concentrated and run over a sizing column (Sephadex S200 26/60 global). The peak containing soluble protein was collected and run on an Ion-exchange column (MonoQ). Gradient elution (200 mM-500 mM NaCl) yielded pure protein. This protein was concentrated and dialyzed against dialysis buffer (20 mM Tris-HCl, 2 mM TCEP) overnight. The protein was aliquoted and frozen at −80° C. until further use.
Sirtuin modulating compounds that activated SIRT1 were identified using the assay described above and are shown below in Table 1. The EC1.5 values represent the concentration of test compounds that result in 150% activation of SIRT1. The EC1.5 values for the activating compounds are represented by A (EC1.5<10 μM), B (EC1-5 10-25 μM), C (EC1.5>25 μM). The percent maximum fold activation is represented by A (Fold activation >200%) or B (Fold Activation <200%).

| EC1.5 (concentration of test compound that results in 150% activation of SIRT1) | Emax [%] | Structure (SMILES) |
| --- | --- | --- |
| A (EC1.5<10 μM) | > 200 | O=C(Nc1cccc2c1C(=O)N(c1cccc(C(F)(F)F)c1)C2)c1cccc(C2CCNC2)c1 (stereo not drawn) [Compound 138] |
| A (EC1.5<10 μM) | < 200 | O=C(Nc1cccc2c1C(=O)N(c1cccc(C(F)(F)F)c1)C2)c1ccc(CN2CCCC2)cc1 [Compound 125] |
| C (EC1.5>25 μM) | < 200 | O=C(Nc1cccc2c1C(=O)N(c1cccc(C(F)(F)F)c1)C2)c1ccncn1 [Compound 127] |
| A (EC1.5<10 μM) | < 200 | O=C(Nc1cccc2c1C(=O)N(c1cccc(C(F)(F)F)c1)C2)C1CCOCC1 [Compound 111] |
| A (EC1.5<10 μM) | < 200 | O=C(Nc1cccc2c1C(=O)N(c1cccc(C(F)(F)F)c1)C2)c1cccc(CN2CCOCC2)n1 [Compound 130, 6-(morpholinomethyl)-N-(3-oxo-2-(3-(trifluoromethyl)phenyl)isoindolin-4-yl)picolinamide] |
| C (EC1.5>25 μM) | < 200 | O=C(Nc1cccc2c1C(=O)N(c1cccc(C(F)(F)F)c1)C2)c1cccc(OCC(O)CO)n1 (stereo not drawn) [Compound 129, 6-(2,3-dihydroxypropoxy)-N-(3-oxo-2-(3-(trifluoromethyl)phenyl)isoindolin-4-yl)picolinamide] |
| C (EC1.5>25 μM) | < 200 | O=C(Nc1cccc2c1C(=O)N(c1cccc(OC(F)(F)F)c1)C2)C1CCCC1 [Compound 108] |
| C (EC1.5>25 μM) | < 200 | O=C(Cc1cccnc1)Nc1cccc2c1C(=O)N(c1cccc(OC3CCNCC3)c1)C2 [Compound 102, N-(3-oxo-2-(3-(piperidin-4-yloxy)phenyl)isoindolin-4-yl)-2-(pyridin-3-yl)acetamide] |
| A (EC1.5<10 μM) | < 200 | O=C(Nc1cccc2c1C(=O)N(c1cccc(C(F)(F)F)c1)C2)c1ncccn1 [Compound 122] |
| C (EC1.5>25 μM) | < 200 | O=C(Nc1cccc2c1C(=O)N(c1cccc(C(F)(F)F)c1)C2)c1ccccn1 [Compound 120] |
| C (EC1.5>25 μM) | < 200 | O=C(Cc1cccnc1)Nc1cccc2c1C(=O)N(c1cccc(C(F)(F)F)c1)C2 [Compound 101] |
| C (EC1.5>25 μM) | < 200 | O=C(Nc1cccc2c1C(=O)N(c1cccc(OC(F)(F)F)c1)C2)c1cccc(OCC(O)CO)n1 (stereo not drawn) [Compound 131] |
| C (EC1.5>25 μM) | < 200 | O=C(Nc1cccc2c1C(=O)N(c1cccc(C(F)(F)F)c1)C2)c1cccnc1 [Compound 121] |
| C (EC1.5>25 μM) | < 200 | O=C(Nc1cccc2c1C(=O)N(c1cccc(C(F)(F)F)c1)C2)c1cncnc1 [Compound 126] |
| A (EC1.5<10 μM) | < 200 | O=C(Nc1cccc2c1C(=O)N(c1cccc(C(F)(F)F)c1)C2)c1cnccn1 [Compound 100, N-(3-oxo-2-(3-(trifluoromethyl)phenyl)isoindolin-4-yl)pyrazine-2-carboxamide] |
| C (EC1.5>25 μM) | < 200 | O=C(CC1CCCC1)Nc1cccc2c1C(=O)N(c1cccc(C(F)(F)F)c1)C2 [Compound 112] |
| C (EC1.5>25 μM) | < 200 | O=C(Cc1cccnc1)Nc1cccc2c1C(=O)N(c1cccc(OC(F)(F)F)c1)C2 [Compound 107] |
| B (EC1-5 10-25 μM) | < 200 | O=C(Cc1cccnc1)Nc1cccc2c1C(=O)N(c1cccc(O[C@@H]3CCNC3)c1)C2 [Compound 103] |
| C (EC1.5>25 μM) | < 200 | COc1cccc(N2Cc3cccc(NC(=O)Cc4cccnc4)c3C2=O)c1 [Compound 116] |
| C (EC1.5>25 μM) | < 200 | Cc1ccc(N2Cc3cccc(NC(=O)Cc4cccnc4)c3C2=O)cc1 [Compound 117] |
| C (EC1.5>25 μM) | < 200 | O=C(Nc1cccc2c1C(=O)N(c1cccc(C(F)(F)F)c1)C2)c1cncs1 [Compound 128] |
| C (EC1.5>25 μM) | < 200 | CC(C)(C(=O)Nc1cccc2c1C(=O)N(c1cccc(C(F)(F)F)c1)C2)c1ccccc1 [Compound 106] |
| A (EC1.5<10 μM) | < 200 | O=C(Nc1cccc2c1C(=O)N(c1cccc(OC(F)(F)F)c1)C2)c1cccc(CN2CCOCC2)n1 [Compound 132] |
| B (EC1-5 10-25 μM) | < 200 | O=C(Nc1cccc2c1C(=O)N(c1cccc(C(F)(F)F)c1)C2)c1ccncc1 [Compound 123] |
| C (EC1.5>25 μM) | < 200 | O=C(Cc1ccc(F)cc1)Nc1cccc2c1C(=O)N(c1cccc(C(F)(F)F)c1)C2 [Compound 113] |
| C (EC1.5>25 μM) | < 200 | O=C(Cc1ccccc1F)Nc1cccc2c1C(=O)N(c1cccc(C(F)(F)F)c1)C2 [Compound 109] |
| C (EC1.5>25 μM) | < 200 | O=C(Nc1cccc2c1C(=O)N(c1cccc(C(F)(F)F)c1)C2)c1cncc(N2CCOCC2)n1 [Compound 137] |
| C (EC1.5>25 μM) | < 200 | O=C(Nc1cccc2c1C(=O)N(c1cccc(C(F)(F)F)c1)C2)c1cscn1 [Compound 124] |
| C (EC1.5>25 μM) | < 200 | O=C(Nc1cccc2c1C(=O)N(c1cccc(C(F)(F)F)c1)C2)c1cccc(N2CCOCC2)n1 [Compound 135] |
| C (EC1.5>25 μM) | < 200 | O=C(Cc1cccc(F)c1)Nc1cccc2c1C(=O)N(c1cccc(C(F)(F)F)c1)C2 [Compound 110] |
